Results published in patent publication US6737383B1, “Herbicidal oxadiazolidines” (priority 1999, dated 2004).

Assays:
bamyardgrass = experiment: Test B flood test barnyardgrass; type: in vivo, Echinochloa crus-galli
How it was run: (§1)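 Plants were grown to the 2-leaf stage before treatment with test chemical, then held in a greenhouse for twelve to sixteen days. Injury was visually rated against untreated controls on a 0–10 scale, where 0 is no effect and 10 is complete control.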

rice = experiment: Test B flood test rice; type: in vivo, Oryza sativa
How it was run: as §1

surinam grass = experiment: Test B pre/postemergence surinam grass; type: in vivo, Brachiaria decumbens
How it was run: (§2)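 Test chemicals in a non-phytotoxic solvent mixture with surfactant were sprayed preemergence onto planted seeds and postemergence onto plants 2 to 18 cm tall (1- to 4-leaf stage). After twelve to sixteen days in a greenhouse, injury was visually rated against untreated controls from 0 (no effect) to 10 (complete control).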

bedstraw = experiment: Test B pre/postemergence bedstraw; type: in vivo, Galium aparine
How it was run: as §2

cocklebur = experiment: Test B pre/postemergence cocklebur; type: in vivo, Xanthium strumarium
How it was run: as §2

rape = experiment: Test B pre/postemergence rape; type: in vivo, Brassica napus
How it was run: as §2

blackgrass = experiment: Test B pre/postemergence blackgrass; type: in vivo, Alopecurus myosuroides
How it was run: as §2

sugar beet = experiment: Test B pre/postemergence sugar beet; type: in vivo, Beta vulgaris
How it was run: as §2

velvetleaf = experiment: Test B pre/postemergence velvetleaf; type: in vivo, Abutilon theophrasti
How it was run: as §2

crabgrass = experiment: Test B pre/postemergence crabgrass; type: in vivo, Digitaria sanguinalis
How it was run: as §2

corn = experiment: Test B pre/postemergence corn; type: in vivo, Zea mays
How it was run: as §2

wild oat = experiment: Test B pre/postemergence wild oat; type: in vivo, Avena fatua
How it was run: as §2

purple nutsedge = experiment: Test B pre/postemergence purple nutsedge; type: in vivo, Cyperus rotundus
How it was run: as §2

pigweed = experiment: Test B pre/postemergence pigweed; type: in vivo, Amaranthus retroflexus
How it was run: as §2

duck salad = experiment: Test B flood test duck salad; type: in vivo, Heteranthera limosa
How it was run: as §1

soybean = experiment: Test B pre/postemergence soybean; type: in vivo, Glycine max
How it was run: as §2

giant foxtail = experiment: Test B pre/postemergence giant foxtail; type: in vivo, Setaria faberii
How it was run: as §2

wheat = experiment: Test B pre/postemergence wheat; type: in vivo, Triticum aestivum
How it was run: as §2

smallflower flatsedge = experiment: Test B flood test smallflower flatsedge; type: in vivo, Cyperus difformis
How it was run: as §1

morningglory = experiment: Test B pre/postemergence morningglory; type: in vivo, Ipomoea hederacea
How it was run: as §2

[1] = Rate 62 g/ha, flood test species, Pre-emergence, visual evaluation after twelve to sixteen days
[2] = Rate 125 g/ha, under heading Pre-emergence, flood test species, visual evaluation after twelve to sixteen days
[3] = Rate 250 g/ha, Pre-emergence (flood test species), scale 0 to 10, 0 is no effect, 10 is complete control
[4] = Rate 500 g/ha, Pre-emergence section of Table B, 0 to 10 scale (0 no effect, 10 complete control)
[5] = Postemergence, Rate 62 g/ha, scale 0 to 10, 0 is no effect, 10 is complete control
[6] = Postemergence, Rate 125 g/ha, scale of 0 to 10 where 0 is no effect and 10 is complete control
[7] = Postemergence, Rate 250 g/ha, scale of 0 to 10, 0 is no effect, 10 is complete control
[8] = Postemergence, Rate 500 g/ha, scale of 0 to 10 where 0 is no effect and 10 is complete control
[9] = Preemergence, Rate 62 g/ha, scale 0 to 10 (0 no effect, 10 complete control)
[10] = Preemergence, Rate 125 g/ha, scale of 0 to 10 where 0 is no effect and 10 is complete control
[11] = Preemergence, Rate 500 g/ha, scale of 0 to 10 where 0 is no effect and 10 is complete control

CCC(C)n1c(=O)on(C(=O)N(c2ccccc2)C(C)C)c1=O (stereo not drawn) [Compound 610]
Plant response rating, Barnyardgrass (0 to 10 scale, 0 is no effect, 10 is complete control) (bamyardgrass; [1]): 0 | Barnyardgrass plant response rating (0 to 10 scale, 0 is no effect, 10 is complete control) (bamyardgrass; [2]): 0 | Barnyardgrass plant response rating (bamyardgrass; [3]): 0 | Barnyardgrass plant response rating (bamyardgrass; [4]): 8 | Plant response rating, Rice (0 to 10 scale, 0 is no effect, 10 is complete control) (rice; [1]): 0 | Rice plant response rating (0 to 10 scale, 0 is no effect, 10 is complete control) (rice; [2]): 0 | Rice plant response rating (rice; [3]): 2 | Rice plant response rating (rice; [4]): 8 | Plant response rating, B. signalgrass (surinam grass; [5]): 0 | Plant response rating, B. signalgrass (surinam grass; [6]): 6 | B. signalgrass plant response rating (surinam grass; [7]): 7 | Plant response rating, B. signalgrass (surinam grass; [8]): 9 | B. signalgrass plant response rating (surinam grass; [9]): 6 | B. signalgrass plant response rating (surinam grass; [10]): 8 | B. signalgrass plant response rating (0 to 10 scale, 0 is no effect, 10 is complete control) (surinam grass; Preemergence, Rate 250 g/ha): 9 | B. signalgrass plant response rating (surinam grass; [11]): 10 | Plant response rating, Bedstraw (bedstraw; [5]): 0 | Bedstraw plant response rating (bedstraw; [7]): 4 | Plant response rating, Bedstraw (bedstraw; [8]): 9 | Bedstraw plant response rating (bedstraw; [11]): 10 | Plant response rating, Cocklebur (cocklebur; [5]): 0 | Plant response rating, Cocklebur (cocklebur; [6]): 1 | Cocklebur plant response rating (cocklebur; [7]): 0 | Plant response rating, Cocklebur (cocklebur; [8]): 2 | Cocklebur plant response rating (cocklebur; [9]): 0 | Cocklebur plant response rating (cocklebur; [10]): 0 | Cocklebur plant response rating (0 to 10 scale) (cocklebur; Preemergence, Rate 250 g/ha): 0 | Plant response rating, Cocklebur (cocklebur; [11]): 3 | Plant response rating, Rape (rape; [5]): 0 | Plant response rating, Rape (rape; [6]): 2 | Rape plant response rating (rape; [7]): 3 | Plant response rating, Rape (rape; [8]): 5 | Rape plant response rating (rape; [9]): 3 | Rape plant response rating (rape; [10]): 8 | Plant response rating, Rape (rape; [11]): 10 | Plant response rating, Blackgrass (blackgrass; [5]): 8 | Plant response rating, Blackgrass (blackgrass; [6]): 9 | Blackgrass plant response rating (blackgrass; [7]): 9 | Plant response rating, Blackgrass (blackgrass; [8]): 10 | Blackgrass plant response rating (blackgrass; [9]): 8 | Blackgrass plant response rating (blackgrass; [10]): 9 | Blackgrass plant response rating (0 to 10 scale) (blackgrass; Preemergence, Rate 250 g/ha): 10 | Blackgrass plant response rating (blackgrass; [11]): 10 | Plant response rating, Sugarbeets (sugar beet; [5]): 0 | Plant response rating, Sugarbeets (sugar beet; [6]): 0 | Sugarbeets plant response rating (sugar beet; [7]): 0 | Plant response rating, Sugarbeets (sugar beet; [8]): 0 | Sugarbeets plant response rating (sugar beet; [9]): 3 | Sugarbeets plant response rating (sugar beet; [10]): 7 | Plant response rating, Sugarbeets (sugar beet; [11]): 8 | Plant response rating, Velvetleaf (velvetleaf; [5]): 0 | Plant response rating, Velvetleaf (velvetleaf; [6]): 3 | Velvetleaf plant response rating (velvetleaf; [7]): 7 | Plant response rating, Velvetleaf (velvetleaf; [8]): 7 | Velvetleaf plant response rating (velvetleaf; [9]): 7 | Velvetleaf plant response rating (velvetleaf; [10]): 7 | Plant response rating, Velvetleaf (velvetleaf; [11]): 10 | Plant response rating, Crabgrass (crabgrass; [5]): 9 | Plant response rating, Crabgrass (crabgrass; [6]): 9 | Crabgrass plant response rating (crabgrass; [7]): 9 | Plant response rating, Crabgrass (crabgrass; [8]): 9 | Crabgrass plant response rating (crabgrass; [9]): 9 | Crabgrass plant response rating (crabgrass; [10]): 10 | Plant response rating, Crabgrass (crabgrass; [11]): 10 | Plant response rating, Corn (corn; [5]): 0 | Plant response rating, Corn (corn; [6]): 0 | Corn plant response rating (corn; [7]): 2 | Plant response rating, Corn (corn; [8]): 5 | Corn plant response rating (corn; [9]): 0 | Corn plant response rating (corn; [10]): 3 | Corn plant response rating (0 to 10 scale) (corn; Preemergence, Rate 250 g/ha): 7 | Plant response rating, Corn (corn; [11]): 8 | Plant response rating, Wild oats (wild oat; [5]): 0 | Plant response rating, Wild oats (wild oat; [6]): 3 | Wild oats plant response rating (wild oat; [7]): 5 | Plant response rating, Wild oats (wild oat; [8]): 9 | Wild oats plant response rating (wild oat; [9]): 5 | Wild oats plant response rating (wild oat; [10]): 6 | Plant response rating, Wild oats (wild oat; [11]): 10 | Plant response rating, Nutsedge (purple nutsedge; [5]): 0 | Plant response rating, Nutsedge (purple nutsedge; [6]): 0 | Nutsedge plant response rating (purple nutsedge; [7]): 5 | Plant response rating, Nutsedge (purple nutsedge; [8]): 6 | Nutsedge plant response rating (purple nutsedge; [9]): 0 | Nutsedge plant response rating (purple nutsedge; [10]): 0 | Plant response rating, Nutsedge (purple nutsedge; [11]): 3 | Plant response rating, Redroot pigweed (pigweed; [5]): 0 | Plant response rating, Redroot pigweed (pigweed; [6]): 2 | Redroot pigweed plant response rating (pigweed; [7]): 6 | Plant response rating, Redroot pigweed (pigweed; [8]): 7 | Redroot pigweed plant response rating (pigweed; [9]): 10 | Redroot pigweed plant response rating (pigweed; [10]): 10 | Plant response rating, Redroot pigweed (pigweed; [11]): 10 | Plant response rating, Ducksalad (0 to 10 scale, 0 is no effect, 10 is complete control) (duck salad; [1]): 0 | Ducksalad plant response rating (0 to 10 scale, 0 is no effect, 10 is complete control) (duck salad; [2]): 0 | Ducksalad plant response rating (duck salad; [3]): 0 | Ducksalad plant response rating (duck salad; [4]): 7 | Plant response rating, Soybean (soybean; [5]): 5 | Plant response rating, Soybean (soybean; [6]): 7 | Soybean plant response rating (soybean; [7]): 8 | Plant response rating, Soybean (soybean; [8]): 9 | Soybean plant response rating (soybean; [9]): 0 | Soybean plant response rating (soybean; [10]): 6 | Plant response rating, Soybean (soybean; [11]): 8 | Plant response rating, Giant foxtail (giant foxtail; [5]): 8 | Plant response rating, Giant foxtail (giant foxtail; [6]): 7 | Giant foxtail plant response rating (giant foxtail; [7]): 9 | Plant response rating, Giant foxtail (giant foxtail; [8]): 9 | Giant foxtail plant response rating (giant foxtail; [9]): 9 | Giant foxtail plant response rating (giant foxtail; [10]): 10 | Plant response rating, Giant foxtail (giant foxtail; [11]): 10 | Plant response rating, Wheat (wheat; [5]): 0 | Plant response rating, Wheat (wheat; [6]): 1 | Wheat plant response rating (wheat; [7]): 4 | Plant response rating, Wheat (wheat; [8]): 5 | Wheat plant response rating (wheat; [9]): 2 | Wheat plant response rating (wheat; [10]): 2 | Plant response rating, Wheat (wheat; [11]): 6 | Plant response rating, S. Flatsedge (0 to 10 scale, 0 is no effect, 10 is complete control) (smallflower flatsedge; [1]): 0 | S. Flatsedge plant response rating (0 to 10 scale, 0 is no effect, 10 is complete control) (smallflower flatsedge; [2]): 0 | S. Flatsedge plant response rating (smallflower flatsedge; [3]): 0 | S. Flatsedge plant response rating (smallflower flatsedge; [4]): 8 | Plant response rating, Morningglory (morningglory; [5]): 8 | Plant response rating, Morningglory (morningglory; [6]): 8 | Morningglory plant response rating (morningglory; [7]): 8 | Plant response rating, Morningglory (morningglory; [8]): 9 | Morningglory plant response rating (morningglory; [9]): 0 | Morningglory plant response rating (morningglory; [10]): 3 | Plant response rating, Morningglory (morningglory; [11]): 8
